In patent US20210177795A1 (priority 2017, published 2021):
“Also recorded” adds a separate entry of the source.

Key:
[1] = system: Udorn influenza virus (A/Udorn/307/72 (H3N2)); set-up: species or system C57BL/6 mice; details: mouse, in vivo
[2] = mouse, in vivo
RANTES = system: RANTES; set-up: species or system C57BL/6 mice; details: mouse, in vivo
KC = system: KC; set-up: species or system C57BL/6 mice; details: mouse, in vivo
IL-10 = system: IL-10; set-up: species or system C57BL/6 mice; details: mouse, in vivo
cytokines/chemokines = system: cytokines/chemokines; set-up: species or system C57BL/6 mice; details: mouse, in vivo
IL-6 = system: IL-6; set-up: species or system C57BL/6 mice; details: mouse, in vivo
MCP-1 = system: MCP-1; set-up: species or system C57BL/6 mice; details: mouse, in vivo

## PEG-[Arg]4-Ser-Ser-Pam2Cys [INNA-002]
[1]
  antiviral effect across doses: dose-dependent antiviral-effect
  progression of influenza virus to the lungs: inhibited; also recorded: partial inhibition

## CCCCCCCCCCCCCCCC(=O)OCC(CSC[C@H](N)C(=O)N[C@@H](CO)C(=O)N[C@@H](CO)C(=O)NCCOCCOCCOCCOCCOCCOCCOCCOCCOCCOCCOCCOCCC(=O)NCC(N)=O)OC(=O)CCCCCCCCCCCCCCC (stereo partly drawn) [INNA-003, PEG-S—S-Pam2Cys]
[2]
  greatest weight loss: 1.89%±1.15%

## CCC(=O)OCC(CSCC(N)C(=O)NC(CO)C(=O)NCCOCC(=O)NCC(N)=O)OC(=O)CC (stereo not drawn) [INNA-006, PEG-S-Pam2Cys]
RANTES
  RANTES level in nasal turbinates: ~141 pg/mL
  RANTES secretion in nasal turbinates compared to INNA-003: increased RANTES secretion
  fold increase of RANTES in nasal turbinates vs saline: 1.9 fold
[1]
  progression of influenza virus to the lungs: significantly inhibited; also recorded: partial inhibition
[2]
  greatest weight loss: 1.87%±1.33%
KC
  KC in the lungs compared to the saline control: no significance
  KC level in lungs: ~14 pg/mL
  KC level in nasal turbinates: ~83 pg/mL
  KC levels in the lung: ~16.3 pg/mL
  fold increase of KC in nasal turbinates vs saline: 2 fold
  fold increase of KC secretion in lungs compared to INNA-003: 2 fold
  fold increase of KC secretion in lungs compared to saline control: 3 fold
IL-10
  IL-10 level in nasal turbinates: ~17 pg/mL
  fold increase of IL-10 in nasal turbinates vs saline: 2 fold
cytokines/chemokines
  cytokine/chemokine levels in nasal turbinates, lungs and sera, 3 repeat doses vs single dose: marked decrease
  cytokine/chemokine profiles in lungs, trachea and sera, single vs triple dose regimes: no discernible differences
  proinflammatory cytokines and chemokines including IL-6, KC & MCP-1 in nasal turbinates vs saline: increases were detected in a dose-dependent manner
IL-6
  IL-6 in nasal turbinates, fold lower with 3 doses vs single dose: approximately 25 fold
  fold increase in IL-6 levels in nasal turbinates vs saline: 98 fold
MCP-1
  MCP-1 level in nasal turbinates: ~66 pg/mL
  fold increase of MCP-1 in nasal turbinates vs saline: 7 fold
